Reference: patent US20030055106A1, “Therapeutic uses of peroxometallic compounds” (priority 1999, published 2003)

Assays:
[1] = system: vitelline membrane of chick embryos; assay: Embryonic vascularization test (EVT) ex ovo; type: in vivo; conditions: for approximate IC50, neovascularization (regardless of the scoring system): per methylcellulose disc
Source text: FIG. 2: A and B show an anti-angiogenic response to bpV(phen), orthovanadate (Van) and protamine (Prot) using a vascularization test on the vitelline membrane of chick embryos. Each point represents a minimum of 15 embryos (15 to 28).
The normal development of a chick embryo involves the formation of an external vascular system which is located in the vitelline membrane and which carries nutrients from the vitellus (yolk of the egg) to the developing embryo. When placed onto the vitelline membrane, anti-angiogenic substances can inhibit blood vessel development in the vitelline membrane. To facilitate access to the vitelline membrane, chick embryos were transferred to a sterile culture box (Petri dish) and placed in a humidity- and temperature-controlled incubator. Embryos could then develop in this ex ovo condition for several days.
An aliquot of the tested compound was mixed with a methylcellulose solution and allowed to air-dry into thin discs. Methylcellulose forms an inert matrix from which the tested compound can diffuse slowly. Methylcellulose discs containing the tested compound were placed on the external border of the vascular perimeter of the vitelline membrane where the angiogenic process was still active.
The effects of the discs containing the tested compound on proximal vascular development were, in all cases, compared with those of discs containing control buffer. The discs were placed on the embryos' vitelline membrane on Day 0 or Day 1 of the ex ovo growth process; at this point, only beginnings of the main blood vessels are invading the vitellus. The embryos were then put in culture conditions until vascularization was assessed (approximately 24 h). Control buffer- and compound-containing discs were in all cases added simultaneously on the vitelline membrane of the same embryo. Both discs were arranged in a symmetrical fashion with respect to the cephalo-caudal axis of the embryo in order to minimize inter-individual variations when comparing the tested compounds with controls.
[…] After one day in culture, the level of vascularization in the area covered by the discs was graded by a pair of scientists in the usual blind fashion. To facilitate the location of the discs, black O-rings were placed around them just after their placement on the vitelline membrane. The evaluation scale for the EVTs was based on two different scoring systems.
Blood vessel formation was assessed in a blind fashion. The areas of the vitelline membranes that lay beneath the methylcellulose discs were scored for the degree of vascularization, using two scoring systems (“N/+” or “1-2-3”). The following selection criteria were used:
A score of “N” for “Normal” was attributed when all the following conditions were met:
Blood vessels in the evaluated area grew along their path with no abnormal deviation. Collateral branching density was normal and the growth path of the lateral branches was also normal.
A score of “+” was attributed when at least one of the following conditions was met:
1-2-3 Grading Scale System:
A score of 3 was attributed when the following conditions were met:
A score of 2 was attributed when at least one of the following conditions was met:
A score of 1 was attributed when at least one of the following conditions was met:
A score of 3 meant that blood vessel development was normal whereas a score of 1 indicated the greatest degree of angiostatic activity.

HUVECs = assay: HUVEC differentiation and organization into tubular-like structures in fibrin matrix; type: cell-based, Human; parameters: key to cords / tubes / Stell. struct.: †: Dead cells
Protocol: Alternatively, HUVECs cultured in a fibrin matrix can form 3-dimensional tubular-like structures in the presence of serum (103). This assay was performed in the presence of either bpV(phen), bpv(pic) or vanadate to assess the influence of each one of these compounds on HUVEC differentiation and organization (Table 1). HUVECs were seeded on the bottom of gelatin-coated wells at high density to provide a confluent monolayer at 48 hours.
Then, 50 000 HUVECs/ml were embedded in fibrinogen solution prior to polymerization. The fibrin matrix was covered with culture medium containing the molecule to be tested, while culture medium without any of these molecules served as controls. Cell behavior was observed periodically by phase contrast microscopy.

Rat aorta rings = assay: Rat aortic ring assay (cell/microvessel migration in fibrin gel); type: cell-based
Source text: FIG. 3: Micrographs of the cell migration from aortic rings embedded in fibrin (×12).
FIG. 4: Quantification of the cell migration from aortic rings in the presence of orthovanadate (plain bars); bpV(phen) (light gray bars); and bpV(pic) (dark gray bars). The control appears as an empty bar. Means and standard errors of the means are presented.
Rat aorta rings were embedded in fibrin matrix as previously described (107). Thoracic aortas excised from adult rats were rinsed in Hank's balanced salt solution (HBSS), and cleansed of periadventitial. One-mm long aortic rings were sectioned and rinsed in culture medium. Each of the aortic rings were then embedded in fibrin gel matrix. Migration of microvessels in fibrin gel was quantified by measuring the distance from the external surface of rat aortic rings towards the migrating vessels. Measurements were performed at day 15 by digitizing morphometry with a NIH image analysis system (FIGS. 3 and 4).

ETs (ET-1, ET-2, ET-3) = assay: Plasma endothelin levels after insulin (RIA); type: in vivo; conditions: rats; two minutes after insulin 1.5 μg/100 g b.w.; no bpV(phen)
Protocol: The data presented in Table III show the effect of bpV(phen) on the plasmatic levels of ETs. […] Two minutes following insulin administration (1.5 μg/100 g b.w, or vehicle), the plasma levels of ETs were determined. Insulin administration induced a strong increase of seric ET concentration (54). […] In addition, bpV(phen) decreased the insulin-stimulated levels of plasmatic ETs below control levels. […] ETs (ET-1, ET-2, ET-3) were measured by RIA (Amersham kit RPA 555) after lyophilization and extraction on C2 columns (500 mg). Results are mean ±SEM, p<0.0209, control (n=4) vs Insulin, pV (n=3).

[2] = system: Human umbilical vein endothelial cells (HUVECs); conditions: read-out: approximate IC50, endothelial cell proliferation; 96 hours in culture
Protocol: Each experiment was performed in triplicate. The culture medium was changed daily.

left carotid artery = assay: Balloon angioplasty of the left carotid artery (restenosis); type: in vivo, Male Sprague-Dawley rats
Protocol: The data presented in Table IV show the effect of the pV compound bpV(bipy) on restenosis. Male Sprague-Dawley rats (325-350 g) were anaesthetized with Rogarsetic, a mixture of ketamine hydrochloride and xylazine hydrochloride. The animals were divided into two groups of 14-31 rats that underwent balloon angioplasty of the left carotid artery, with or without treatment (108). The treated group received bpV (bipy) (10 mg/kg/i.p. b.i.d.) for 14 days, starting on the day of the angioplasty. Every animal in each group underwent balloon angioplasty of the left external carotid whereas the contra-lateral carotid served as a control for each animal. The left carotid artery balloon angioplasty was performed under aseptic conditions. The left external carotid was isolated and an arteriotomy was performed. A 2F Fogarty arterial embolectomy catheter was then inserted in the left common carotid and positioned near the aortic arch. The balloon was then inflated and retracted with a twisting motion to its insertion point. This procedure was repeated twice and the external carotid was ligated. There were no differences in the lumina (L), intima (I), media (M), the ratio of I/M and calculated value of (M−L/P) as a measure of neointimal proliferation (NIP) between normal, non-ballooned carotid artery of treated and non-treated rats, serving as controls (data not shown).

[3] = anti-angiogenic effect on stellate structures
[4] = 10 mg/kg/i.p. b.i.d. for 14 days, ballooned left carotid
[5] = treated vs non-treated, 10 mg/kg/i.p. b.i.d. 14 days

## Protamine
[1]; 5 μg, Assay 1
  Anti-angio.activity 1 to 3 (1: no angiogenesis; 3: normal angiogenesis): 2.3
  Anti-angio.activity % (proportion of embryos showing an anti-angiogenic response): 23%
[1]; 5 μg, Assay 4
  Anti-angio.activity 1 to 3 (1: no angiogenesis; 3: normal angiogenesis): 2.3
  Anti-angio.activity % (proportion of embryos showing an anti-angiogenic response): 9%
[1]; 5 μg, Assay 5
  Anti-angio.activity 1 to 3 (1: no angiogenesis; 3: normal angiogenesis): 2.3
  Anti-angio.activity % (proportion of embryos showing an anti-angiogenic response): 16%
[1]; 10 μg, Assay 4
  Anti-angio.activity 1 to 3 (1: no angiogenesis; 3: normal angiogenesis): 2.1
  Anti-angio.activity % (proportion of embryos showing an anti-angiogenic response): 54%
[1]; 10 μg, Assay 5
  Anti-angio.activity 1 to 3 (1: no angiogenesis; 3: normal angiogenesis): 2.1
  Anti-angio.activity % (proportion of embryos showing an anti-angiogenic response): 54%
[1]; 20 μg, Assay 1
  Anti-angio.activity 1 to 3 (1: no angiogenesis; 3: normal angiogenesis): 2.0
  Anti-angio.activity % (proportion of embryos showing an anti-angiogenic response): 46%
[1]; 20 μg, Assay 2
  Anti-angio.activity 1 to 3 (1: no angiogenesis; 3: normal angiogenesis): 1.5
  Anti-angio.activity % (proportion of embryos showing an anti-angiogenic response): 80%
[1]; 20 μg, Assay 3
  Anti-angio.activity 1 to 3 (1: no angiogenesis; 3: normal angiogenesis): 1.5
  Anti-angio.activity % (proportion of embryos showing an anti-angiogenic response): 79%
[1]; 20 μg, Assay 4
  Anti-angio.activity 1 to 3 (1: no angiogenesis; 3: normal angiogenesis): 1.8
  Anti-angio.activity % (proportion of embryos showing an anti-angiogenic response): 80%
[1]; 20 μg, Assay 5
  Anti-angio.activity 1 to 3 (1: no angiogenesis; 3: normal angiogenesis): 1.7
  Anti-angio.activity % (proportion of embryos showing an anti-angiogenic response): 71%
[1]; 30 μg, Assay 4
  Anti-angio.activity 1 to 3 (1: no angiogenesis; 3: normal angiogenesis): 1.8
  Anti-angio.activity % (proportion of embryos showing an anti-angiogenic response): 67%
[1]; 30 μg, Assay 5
  Anti-angio.activity 1 to 3 (1: no angiogenesis; 3: normal angiogenesis): 1.8
  Anti-angio.activity % (proportion of embryos showing an anti-angiogenic response): 67%
[1]
  approximate IC50, neovascularization (regardless of the scoring system): ~11 µg

## [O]=[V]([O-])([O-])[O-] [orthovanadate]
HUVECs; 10 μM
  structures observed by phase contrast microscopy: cords were still apparent
HUVECs; 25 μM
  Stell. struct.: †
  cords: †
  structures observed by phase contrast microscopy: dead cells were sparsely distributed
  tubes: †
HUVECs; [3]
  times less potent than bpV(phen): ≥ 5 times
  times less potent than bpV(pic): at least 3 times
[1]; 0.001 μg, Assay 3
  Anti-angio.activity 1 to 3 (1: no angiogenesis; 3: normal angiogenesis): 2.8
  Anti-angio.activity % (proportion of embryos showing an anti-angiogenic response): 7%
[1]; 0.001 μg, Assay 5
  Anti-angio.activity 1 to 3 (1: no angiogenesis; 3: normal angiogenesis): 2.8
  Anti-angio.activity % (proportion of embryos showing an anti-angiogenic response): 7%
[1]; 0.01 μg, Assay 3
  Anti-angio.activity 1 to 3 (1: no angiogenesis; 3: normal angiogenesis): 2.4
  Anti-angio.activity % (proportion of embryos showing an anti-angiogenic response): 24%
[1]; 0.01 μg, Assay 5
  Anti-angio.activity 1 to 3 (1: no angiogenesis; 3: normal angiogenesis): 2.4
  Anti-angio.activity % (proportion of embryos showing an anti-angiogenic response): 24%
[1]; 0.1 μg, Assay 3
  Anti-angio.activity 1 to 3 (1: no angiogenesis; 3: normal angiogenesis): 2.4
  Anti-angio.activity % (proportion of embryos showing an anti-angiogenic response): 28%
[1]; 0.1 μg, Assay 5
  Anti-angio.activity 1 to 3 (1: no angiogenesis; 3: normal angiogenesis): 2.4
  Anti-angio.activity % (proportion of embryos showing an anti-angiogenic response): 28%
[1]; 1 μg, Assay 3
  Anti-angio.activity 1 to 3 (1: no angiogenesis; 3: normal angiogenesis): 2.0
  Anti-angio.activity % (proportion of embryos showing an anti-angiogenic response): 70%
[1]; 1 μg, Assay 4
  Anti-angio.activity 1 to 3 (1: no angiogenesis; 3: normal angiogenesis): 1.7
  Anti-angio.activity % (proportion of embryos showing an anti-angiogenic response): 57%
[1]; 1 μg, Assay 5
  Anti-angio.activity 1 to 3 (1: no angiogenesis; 3: normal angiogenesis): 1.9
  Anti-angio.activity % (proportion of embryos showing an anti-angiogenic response): 64%
[1]
  approximate IC50, neovascularization (regardless of the scoring system): ~0.6 µg
Rat aorta rings; 3.5 μM
  cell migration from aortic rings: no effect
Rat aorta rings; 25 μM
  cell migration from aortic rings: partial inhibition

## Insulin: insulin administered to rats to induce an increase of ET concentration
ETs (ET-1, ET-2, ET-3)
  Plasma endothelins: 253.10 pg/mL

## O=C(O)c1ccccn1.OO.OO.[K+].[K+].[O]=[V] [bpV(pic), potassium bisperoxo(pyridine-2-carboxylato)oxovanadate]
HUVECs; 1, 2 and 3.5 μM
  structures observed by phase contrast microscopy: cords and tubes were observed
[2]
  IC50: ~3.5 µM
Rat aorta rings; 10-25 μM
  cell migration from aortic rings: inhibition was seen

## [K+].[O]=[V-]12([O][O]1)[O][O]2.c1ccc(-c2ccccn2)nc1 [bpV(bipy), potassium bisperoxo(2,2′-bipyridyl) oxovanadate]
Left carotid artery; [4]
  I (intima): 0.112 mm^2
  I/M: 1.086
  L (lumina): 0.112 mm^2
  M (media): 0.104
  NIP (neointimal proliferation): 0.045 mm
Left carotid artery; [5]
  decrease in NIP: 32%
  decrease in the I/M ratio: 32%
  increase in the opening of the L: 28%
  reduction in the thickness of the I: 21%
